Data from patent US20200345725A1, “Methods and Compositions for Treating Cancer” (Omeros Corporation, priority 2019, published 2020).

Columns and labels:
Type in all cases: cell-based
human PBMCs [1] = experiment: Cytokines in supernatants of anti-CD3/anti-CD28 stimulated human PBMC (Examples 6, 8, 9); settings: for IL-2 in culture supernatants (fold over vehicle): day 2 post-stimulation, compound 10 at 1, 3, 10 μM
Protocol: The effect of compound 10 on IL-2 and IFN-γ production in human PBMCs was determined as follows. PBMCs from a single donor were adjusted to a density of 2×10^6 cells/mL, stimulated with 100 ng/mL of anti-CD3 and 100 ng/mL of anti-CD28 antibodies and treated with 1 μM, 3 μM, or 10 μM of compound 10. Supernatant from these cells was taken on day 2 post-stimulation and the levels of IL-2 and IFN-γ were determined by ELISA assay using Ready-SET-Go ELISA kits from Affimetrix Ebioscience according to the manufacturer's instructions.
The effect of compound 10 on IL-2 production in human PBMCs was determined as follows. […] Supernatant from these cells was taken on day 3 post-stimulation and the levels of IL-2 were determined by ELISA assay using Ready-SET-Go™ ELISA kits from Affimetrix Ebioscience and LEGENDplex™ bead-based immunoassays from BioLegend according to the manufacturer's instructions.
The effect of compound 10 on IL-2 production in human PBMC from each donor was determined as follows. PBMC from each donor were adjusted to a density of 2×10^6 cells/mL, stimulated with 100 ng/mL of anti-CD3 and 100 ng/mL of anti-CD28 antibodies and treated with 30 μM compound 10. Supernatant from these cells was taken on day 2 post-stimulation and the levels of IL-2 were determined by ELISA assay using LEGENDplex™ bead-based immunoassays from BioLegend (San Diego, Calif.) according to the manufacturer's instructions.
The effect of compound 10 on the production of a panel of additional cytokines (interleukin 5 (IL-5), interleukin 13 (IL-13), interleukin 6 (IL-6), interleukin 9 (IL-9), interleukin 10 (IL-10), interferon gamma (IFN-γ), tumor necrosis factor alpha (TNF-α), interleukin 17A (IL-17A), interleukin 17F (IL-17F), interleukin 4 (IL-4) and interleukin 22 (IL-22)) in pooled human PBMC obtained from eight donors was determined as follows. PBMC from eight donors were pooled, then adjusted to a density of 2×10^6 cells/mL, stimulated with 100 ng/mL of anti-CD3 and 100 ng/mL of anti-CD28 antibodies and treated with 30 μM compound 10. Supernatant from these cells was taken on day 2 post-stimulation and the levels of IL-5, IL-13, IL-6, IL-9, IL-10, IFN-γ, TNF-α, IL-17A, IL-17F, IL-4 and […] were determined by ELISA using LEGENDplex™ bead-based immunoassays from BioLegend (San Diego, Calif.) according to the manufacturer's instructions.

human PBMCs [2] = experiment: Treg (FoxP3/Helios) flow cytometry in stimulated human PBMC
Protocol: (§1) A fraction of the cells was taken for staining on day 3 post-stimulation, while the rest of the cells were split 1:4 with fresh medium and used for staining on day 7 post-stimulation. To determine the fraction of natural Treg (nTreg) cells (FoxP3^+Helios^+), PBMCs were washed, stained with fluorescently labeled anti-CD4 antibodies, fixed, permeabilized and stained with a mixture of fluorescent anti-FoxP3 and anti-Helios antibodies. Labeled cells were analyzed by flow cytometry for populations stained for these three markers. Each experiment was performed in triplicate and was repeated five times.
as §1, with “(FoxP3^+Helios^−),” for “(FoxP3^+Helios^+),”, “three” for “five”
as §1, with “day 2” for “day 3”, “(FoxP3^+Helios^+), PBMC” for “(FoxP3^+Helios^+), PBMCs”

ADBR2 = molecular target: T1, ADBR2 (Homo sapiens, UniProt P07550); experiment: CRE-Luc reporter assay with control receptor ADBR2
T1 construct: host or cells: HEK293 or CHO cell lines (ATCC)
T1 sequence (P07550 whole entry): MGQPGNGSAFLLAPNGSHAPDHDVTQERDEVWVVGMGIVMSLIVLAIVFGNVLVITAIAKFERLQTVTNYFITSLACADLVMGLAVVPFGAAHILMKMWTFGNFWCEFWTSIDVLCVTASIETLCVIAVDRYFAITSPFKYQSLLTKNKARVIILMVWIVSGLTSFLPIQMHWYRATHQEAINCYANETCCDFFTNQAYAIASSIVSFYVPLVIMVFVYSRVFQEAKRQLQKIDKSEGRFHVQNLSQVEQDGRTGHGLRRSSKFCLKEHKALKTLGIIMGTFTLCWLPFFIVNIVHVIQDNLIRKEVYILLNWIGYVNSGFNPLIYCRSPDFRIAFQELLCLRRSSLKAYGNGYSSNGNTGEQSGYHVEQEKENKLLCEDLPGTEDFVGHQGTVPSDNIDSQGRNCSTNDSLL

human PBMC = experiment: IL-2 in supernatants of human PBMC stimulated with anti-CD3 and anti-CD28, ELISA; settings: human PBMC donor 8, 24 hours post-stimulation; compound 10 1 μM, ZM-241385 0.1 μM, APCP 10 μM; FIG. 71
Protocol: Human PBMCs, obtained from a human volunteer donor (donor 8), were dispensed in X-vivo15 media (Lonza) supplemented with Glutamax, penicillin and streptomycin, at density of 1×10^6 cells/well in a 96-well flat-bottom plate and were cultured in quadruplicate for 3 hours in the presence of:
GPR174 inhibitory compound 10 (1 μM);
CD73 inhibitory compound, adenosine 5′-(a,p-methylene)diphosphate sodium salt (APCP, Tocris, 10 μM);
Combinations of the above agents;
After which 1 μg/mL anti-CD3 antibody (UCHT1) and 0.1 μg/mL anti-CD28 antibody (CD28.2) were added to activate T cells. Supernatants from these cells were collected at 24 hours post-stimulation and the levels of IL-2 were determined by ELISA.

[3] = Example 9, day 2, PBMC of eight donors, 30 μM

Q: For `CC1CCN(c2cc(N3CCN(S(=O)(=O)c4ccccc4)CC3)c([N+](=O)[O-])cc2F)CC1` [compound 10], which “IFN-γ in culture supernatants, fold over vehicle” value (human PBMCs [1]; Example 6, day 2, 1, 3, 10 μM) is on record?
A: increased interferon gamma (IFN-γ) in a dose-dependent manner

Q: What about the “IL-2 in culture supernatants (fold over vehicle)” value (human PBMCs [1]; Example 6) of the same molecule?
A: increased IL-2 levels in a dose-dependent manner

Q: What about the “IL-2 in culture supernatants” value (human PBMCs [1]; Example 8, day 3, single donor, 3, 10, 30, 60 μM) of the same molecule?
A: increased IL-2 levels in culture supernatants in a dose-dependent manner

Q: And the “IFN-γ in culture supernatants, fold over vehicle” value (human PBMCs [1]; [3])?
A: statistically significant fold increase

Q: What about the “IL-6 in culture supernatants, fold over vehicle” value (human PBMCs [1]; [3]) of the same molecule?
A: statistically significant fold increase

Q: And the “IL-10 in culture supernatants, fold over vehicle” value (human PBMCs [1]; [3])?
A: statistically significant fold increase

Q: And the “IL-17A in culture supernatants, fold over vehicle” value (human PBMCs [1]; [3])?
A: statistically significant fold decrease

Q: What about the “TNF-α in culture supernatants, fold over vehicle” value (human PBMCs [1]; [3]) of the same molecule?
A: statistically significant fold increase

Q: And the “IL-2 in culture supernatants, fold over vehicle, average” value (human PBMCs [1]; Example 9, day 2, eight donors, 30 μM)?
A: about 5 fold

Q: And the “percentage of FoxP3+Helios+ (nTreg) cells in the CD4+ cell population” value (human PBMCs [2]; Example 6, day 7 post-stimulation, 100 μM, vs vehicle)?
A: significantly reduced

Q: What about the “percentage of FoxP3+Helios+ (nTreg) cells in the CD4+ cell population” value (human PBMCs [2]; Example 8, day 7, single donor, 3, 10, 30 μM) of the same molecule?
A: significantly reduced

Q: What about the “FoxP3+Helios+ (nTreg) cells in the CD4+ cell population, fraction of vehicle” value (human PBMCs [2]; Example 9, day 7, eight donors, 30 μM) of the same molecule?
A: significantly reduced

Q: What about the “percentage of FoxP3+Helios− cells in the CD4+ cell population” value (human PBMCs [2]; day 3 post-stimulation, 100 μM, vs vehicle) of the same molecule?
A: significantly increased

Q: And the “Gs pathway in the presence of ADBR2 (CRE-Luc reporter)” value (ADBR2)?
A: did not inhibit

Q: What about the “increase of IL-2 levels” value (human PBMC) of the same molecule?
A: 1.4 fold

Q: With `O=C(c1ccccc1)N1CCN(c2cc(N3CCCCC3)c(F)cc2[N+](=O)[O-])CC1` [compound 6] as the molecule, how does the “IL-2 in culture supernatants (fold over vehicle)” value (human PBMCs [1]; Example 6) read?
A: increased IL-2 levels

Q: What about the “Gs pathway in the presence of ADBR2 (CRE-Luc reporter)” value (ADBR2) of the same molecule?
A: did not inhibit
